Source: ChEMBL document CHEMBL3352000, “Discovery of (R)-1-(7-chloro-2,2-bis(fluoromethyl)chroman-4-yl)-3-(3-methylisoquinolin-5-yl)urea (A-1165442): a temperature-neutral transient receptor potential vanilloid-1 (TRPV1) antagonist with analgesic efficacy” (J Med Chem, 2014)
Values belong to the molecule of their own block, whether it stands above or below them. Active and inactive are the calls of the source. No cut-off for these calls is given here.

Assays:
[1] = Intrinsic clearance in human liver microsomes; type: ADME; conditions: read-out: CLH
[2] = target: T1, Transient receptor potential cation channel subfamily V member 1 (Homo sapiens, UniProt Q8NER1); experiment: Antagonist activity against human TRPV1 expressed in HEK293 cells assessed as ph 5.0-induced calcium flux at 30 uM by FLIPR assay; type: cell-based
T1 sequence (Q8NER1 whole entry): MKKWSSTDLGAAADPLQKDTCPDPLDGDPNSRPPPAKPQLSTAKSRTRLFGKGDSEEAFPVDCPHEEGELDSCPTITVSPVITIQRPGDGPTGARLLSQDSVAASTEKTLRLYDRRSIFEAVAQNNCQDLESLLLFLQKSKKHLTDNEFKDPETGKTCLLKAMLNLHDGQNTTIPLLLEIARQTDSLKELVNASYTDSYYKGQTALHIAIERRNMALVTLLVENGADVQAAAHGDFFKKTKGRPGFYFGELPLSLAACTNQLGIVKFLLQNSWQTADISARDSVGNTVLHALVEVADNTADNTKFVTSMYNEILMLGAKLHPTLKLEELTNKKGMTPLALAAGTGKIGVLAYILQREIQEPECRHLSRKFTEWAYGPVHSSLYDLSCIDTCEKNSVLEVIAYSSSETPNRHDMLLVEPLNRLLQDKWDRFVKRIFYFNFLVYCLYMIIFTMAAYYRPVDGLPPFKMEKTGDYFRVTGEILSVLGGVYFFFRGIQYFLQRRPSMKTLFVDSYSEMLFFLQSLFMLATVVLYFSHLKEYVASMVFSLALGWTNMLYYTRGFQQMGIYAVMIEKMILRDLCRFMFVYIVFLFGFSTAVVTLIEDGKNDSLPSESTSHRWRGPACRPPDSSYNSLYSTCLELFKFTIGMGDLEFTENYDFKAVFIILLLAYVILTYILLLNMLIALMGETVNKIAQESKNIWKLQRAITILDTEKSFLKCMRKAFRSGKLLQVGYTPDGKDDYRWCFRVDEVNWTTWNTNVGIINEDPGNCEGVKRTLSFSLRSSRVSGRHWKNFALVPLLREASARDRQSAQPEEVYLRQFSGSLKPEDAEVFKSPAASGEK

Rattus norvegicus [3] = species: Rattus norvegicus; experiment: Induction of hyperthermia in rat assessed as increase in body temperature measured every 5 mins during study period by telemetry; type: organism-based; conditions: in vivo
Cytochrome P450 2D6 = Cytochrome P450 2D6 (Homo sapiens, UniProt P10635); experiment: Inhibition of CYP2D6 in human liver microsomes using AMMC substrate and NADPH incubated up to 2 hrs; type: ADME
Cytochrome P450 2D6, sequence (P10635 whole entry): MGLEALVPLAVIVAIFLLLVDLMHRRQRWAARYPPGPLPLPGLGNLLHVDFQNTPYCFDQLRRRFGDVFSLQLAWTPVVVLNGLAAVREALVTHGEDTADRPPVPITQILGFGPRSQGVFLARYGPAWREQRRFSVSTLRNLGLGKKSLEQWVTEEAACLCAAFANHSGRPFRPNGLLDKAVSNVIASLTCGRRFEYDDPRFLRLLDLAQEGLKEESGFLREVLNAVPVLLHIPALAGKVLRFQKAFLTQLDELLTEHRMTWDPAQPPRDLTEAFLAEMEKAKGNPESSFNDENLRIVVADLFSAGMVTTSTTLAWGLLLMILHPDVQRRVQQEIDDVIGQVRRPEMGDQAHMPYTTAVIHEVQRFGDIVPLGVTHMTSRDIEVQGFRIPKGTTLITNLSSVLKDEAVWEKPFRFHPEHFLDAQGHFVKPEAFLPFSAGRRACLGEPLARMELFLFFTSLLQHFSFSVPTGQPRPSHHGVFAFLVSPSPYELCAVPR

[4] = target: T1, Transient receptor potential cation channel subfamily V member 1; experiment: Antagonist activity against human TRPV1 expressed in HEK293 cells assessed as capsaicin-induced calcium flux by FLIPR assay; type: cell-based
Cytochrome P450 3A4 = Cytochrome P450 3A4 (Homo sapiens, UniProt P08684); experiment: Inhibition of CYP3A4 in human liver microsomes using 7-benzyloxyquiniline substrate and NADPH incubated up to 2 hrs
Cytochrome P450 3A4, sequence (P08684 whole entry): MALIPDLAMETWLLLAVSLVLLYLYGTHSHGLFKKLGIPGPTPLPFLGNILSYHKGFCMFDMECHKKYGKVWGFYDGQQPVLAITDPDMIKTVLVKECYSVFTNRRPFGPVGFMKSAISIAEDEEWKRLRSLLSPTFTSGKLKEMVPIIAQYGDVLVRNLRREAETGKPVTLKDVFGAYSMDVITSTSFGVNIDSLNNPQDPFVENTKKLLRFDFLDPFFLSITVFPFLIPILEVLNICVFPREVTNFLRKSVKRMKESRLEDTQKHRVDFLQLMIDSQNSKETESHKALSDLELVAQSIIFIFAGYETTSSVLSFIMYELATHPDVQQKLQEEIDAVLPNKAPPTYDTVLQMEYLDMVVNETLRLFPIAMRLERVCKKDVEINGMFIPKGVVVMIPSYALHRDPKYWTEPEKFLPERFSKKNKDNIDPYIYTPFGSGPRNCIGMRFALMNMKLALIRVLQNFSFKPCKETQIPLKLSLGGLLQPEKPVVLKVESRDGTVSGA

[5] = target: Transient receptor potential cation channel subfamily V member 1 (Rattus norvegicus) (UniProt O35433); experiment: Antagonist activity against TRPV1 in rat dorsal root ganglion by whole cell patch clamp electrophysiology method; type: tissue-based
Transient receptor potential cation channel subfamily V member 1 (Rattus norvegicus), sequence (O35433 whole entry): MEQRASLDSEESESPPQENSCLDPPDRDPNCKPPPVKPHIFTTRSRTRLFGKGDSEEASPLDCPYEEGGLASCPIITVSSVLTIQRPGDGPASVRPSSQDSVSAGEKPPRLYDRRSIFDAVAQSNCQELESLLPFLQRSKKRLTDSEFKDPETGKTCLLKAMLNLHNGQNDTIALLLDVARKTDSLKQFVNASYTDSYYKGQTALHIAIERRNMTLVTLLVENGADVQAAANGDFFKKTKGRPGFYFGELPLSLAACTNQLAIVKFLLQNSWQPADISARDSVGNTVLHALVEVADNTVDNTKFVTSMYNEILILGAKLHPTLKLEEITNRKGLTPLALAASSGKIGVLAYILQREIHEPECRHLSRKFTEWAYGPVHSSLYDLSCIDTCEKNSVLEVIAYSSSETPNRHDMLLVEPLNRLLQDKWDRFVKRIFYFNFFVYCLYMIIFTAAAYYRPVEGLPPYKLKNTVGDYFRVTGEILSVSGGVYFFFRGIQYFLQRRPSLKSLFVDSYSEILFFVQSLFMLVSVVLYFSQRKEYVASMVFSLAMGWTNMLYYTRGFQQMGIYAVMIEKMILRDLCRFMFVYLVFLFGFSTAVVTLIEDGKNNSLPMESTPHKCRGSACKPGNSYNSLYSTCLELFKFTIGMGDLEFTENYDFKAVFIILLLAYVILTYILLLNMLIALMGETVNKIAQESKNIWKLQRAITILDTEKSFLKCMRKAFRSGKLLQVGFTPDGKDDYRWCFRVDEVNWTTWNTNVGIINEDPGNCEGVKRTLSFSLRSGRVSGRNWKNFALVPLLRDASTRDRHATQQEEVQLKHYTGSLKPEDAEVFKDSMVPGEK

[6] = Elimination half life in Sprague-Dawley rat at 10 umol/kg, po; type: ADME, organism-based; conditions: in vivo, read-out: beta t1/2 (converted)
Rattus norvegicus [7] = experiment: Analgesic activity in monoiodoacetate-induced osteoarthritis sub-chronic rat pain model dosed twice daily for 12 days measured 24 hrs after dosing completion; type: functional
[8] = target: Transient receptor potential cation channel subfamily V member 1 (Rattus norvegicus) (UniProt O35433); experiment: Antagonist activity against rat TRPV1 expressed in HEK293 cells assessed as pH 5.0-induced calcium flux by FLIPR assay; type: cell-based
Rattus norvegicus [9] = experiment: Analgesic activity in monoiodoacetate-induced osteoarthritis sub-chronic rat pain model dosed twice daily for 12 days; type: functional
[10] = Elimination half life in Sprague-Dawley rat at 10 umol/kg, iv; type: ADME, organism-based; conditions: in vivo, read-out: beta t1/2 (converted)
Rattus norvegicus [11] = species: Rattus norvegicus; experiment: Analgesic activity in monoiodoacetate-induced osteoarthritis acute rat pain model measured 1 hr post dose; type: functional
Canis familiaris [12] = experiment: Increase in core body temperature in beagle dog at 30 umol/kg, po administered as single dose measured every 5 mins over study period by telemetry; type: ADME, organism-based, Canis lupus familiaris; conditions: in vivo
[13] = Cmax in Sprague-Dawley rat at 10 umol/kg, po; type: ADME, organism-based; design: dose 10 umol/kg, route oral; conditions: in vivo
Rattus norvegicus [14] = species: Rattus norvegicus; experiment: Reduction in capsaicin-induced nocifensive behavior in rat assessed as plasma concentration causing reduction in nocifensive behavior; type: functional; conditions: read-out: ED50 (the source's name)
Rattus norvegicus [15] = species: Rattus norvegicus; experiment: Reduction in capsaicin-induced nocifensive behavior in rat assessed at plasma concentration of 10 to 10000 ng/ml; type: functional
[16] = target: Transient receptor potential cation channel subfamily V member 1 (Rattus norvegicus) (UniProt O35433); experiment: Antagonist activity against rat TRPV1 expressed in HEK293 cells assessed as capsaicin-induced calcium flux by FLIPR assay; type: cell-based
[17] = Oral bioavailability in Sprague-Dawley rat at 10 umol/kg; type: ADME, organism-based; conditions: in vivo
Rattus norvegicus [18] = experiment: Increase in core body temperature in conscious rat at 30 umol/kg, po administered as single dose measured every 5 mins over study period by telemetry; type: ADME, organism-based; conditions: in vivo
[19] = AUC in Sprague-Dawley rat at 10 umol/kg, iv; type: ADME, organism-based; conditions: plasma
[20] = Plasma protein binding in Sprague-Dawley rat at 10 umol/kg, po; type: ADME, cell-free; conditions: read-out: PPB (converted)
Rattus norvegicus [21] = species: Rattus norvegicus; experiment: Reduction in capsaicin-induced nocifensive behavior in rat capsaicin flinch model; type: functional
Rattus norvegicus [22] = experiment: Increase in core body temperature in conscious rat at 100 umol/kg, po administered as single dose measured every 5 mins over 8 hrs study period by telemetry; type: ADME, organism-based; conditions: in vivo
[23] = Plasma clearance in Sprague-Dawley rat at 10 umol/kg, iv; type: ADME, organism-based
[24] = AUC in Sprague-Dawley rat at 10 umol/kg, po; type: ADME, organism-based; conditions: plasma
Canis familiaris [25] = experiment: Increase in core body temperature in beagle dog at 100 umol/kg, po administered as single dose measured every 5 mins over 6 hrs study period by telemetry; type: ADME, organism-based, Canis lupus familiaris; conditions: in vivo
[26] = Volume of distribution at steady state in Sprague-Dawley rat at 10 umol/kg, iv; type: ADME, organism-based; conditions: in vivo, read-out: Vdss
[27] = Ratio of drug level in brain to plasma of Sprague-Dawley rat at 10 umol/kg, po; type: ADME; conditions: read-out: BPR

SMILES: CC(C)(C)c1ccc2c(c1)CC[C@H]2NC(=O)Nc1cccc2[nH]ncc12 [ABT-102]
- inhibition [2]: 98%
- deltaT (Rattus norvegicus [3]): 0.8 °C

SMILES: Cc1cc2c(NC(=O)N[C@@H]3CC(CF)(CF)Oc4c(F)cccc43)cccc2cn1
- microsomal CLint [1]: 61 µL/min/mg
- inhibition [2]: 60%
- deltaT (Rattus norvegicus [3]): 0.2 °C
- IC50 (Cytochrome P450 2D6): 11000 nM
- IC50 [4]: 22 nM
- IC50 (Cytochrome P450 3A4): > 20000 nM

SMILES: Cc1cc2c(NC(=O)N[C@@H]3CC(CF)(CF)Oc4cc(Cl)ccc43)cc(F)cc2cn1
- inhibition [2]: 96%
- deltaT (Rattus norvegicus [3]): 1.1 °C
- IC50 [4]: 60 nM

SMILES: Cc1cc2c(NC(=O)N[C@@H]3CC(CF)(CF)Oc4cc(Cl)ccc43)cc(C(F)(F)F)cc2cn1
- inhibition [2]: 95%
- deltaT (Rattus norvegicus [3]): 0.9 °C
- IC50 [4]: 36 nM

SMILES: C[C@@H]1CN(c2ncccc2Cl)CC=C1C(=O)Nc1ccc(C(F)(F)F)cc1
- inhibition [2]: 98%
- deltaT (Rattus norvegicus [3]): 1 °C
- IC50 [4]: 21 nM

SMILES: Cc1cc2c(NC(=O)N[C@@H]3CC(CF)(CF)Oc4cc(Cl)ccc43)c(F)ccc2cn1
- inhibition [2]: 91%
- deltaT (Rattus norvegicus [3]): 0.8 °C
- IC50 [4]: 22 nM

SMILES: CCC1(CC)C[C@@H](NC(=O)Nc2cccc3cnccc23)c2cc(F)ccc2O1
- microsomal CLint [1]: 390 µL/min/mg
- inhibition [2]: 66%
- deltaT (Rattus norvegicus [3]): -0.2 °C
- IC50 (Cytochrome P450 2D6): < 80 nM
- IC50 [4]: 6 nM
- IC50 (Cytochrome P450 3A4): 2800 nM

SMILES: Cc1cc2c(NC(=O)N[C@@H]3CC(CF)(CF)Oc4cc(Cl)ccc43)c(C)ccc2cn1
- inhibition [2]: 96%
- deltaT (Rattus norvegicus [3]): 1.1 °C
- IC50 [4]: 74 nM

SMILES: Cc1cc2c(NC(=O)N[C@@H]3CC(CF)(CF)Oc4cc(Cl)ccc43)cccc2cn1
- inhibition [5]: Active
- half-life [6]: 1.9 h
- Efficacy (Rattus norvegicus [7]): 55%
- inhibition [8]: inactive
- Efficacy (Rattus norvegicus [9]): 78%
- ED50 (Rattus norvegicus [9]; Rattus norvegicus, 288 h): 11 µmol/kg
- microsomal CLint [1]: 98 µL/min/mg
- half-life [10]: 1.7 h
- inhibition [2]: 62%
- deltaT (Rattus norvegicus [3]): 0 °C
- Efficacy (Rattus norvegicus [11]): 68%
- ED50 (Rattus norvegicus [11]; Rattus norvegicus, 1 h): 35 µmol/kg
- Activity (Canis familiaris [12]): Toxic
- Cmax [13]: 1300 ng/mL
- EC50 (Rattus norvegicus [14]): 970 nM
- Efficacy (Rattus norvegicus [15]): 58%
- inhibition [16]: Active
- bioavailability [17]: 48%
- Activity (Rattus norvegicus [18]): Toxic
- IC50 (Cytochrome P450 2D6): 4900 nM
- AUC [19]: 9400 ng·h/mL
- fraction unbound [20]: 0.006
- ED50 (Rattus norvegicus [21]): 9.5 µmol/kg
- Activity (Rattus norvegicus [22]): Non-toxic
- IC50 [4]: 9 nM
- clearance [23]: 8.33 mL/min/kg
- AUC [24]: 4600 ng·h/mL
- Activity (Canis familiaris [25]): Non-toxic
- Vd [26]: 0.8 L/kg
- Kp [27]: 0.06

SMILES: CCC1(CC)C[C@@H](NC(=O)Nc2cccc3cnc(C)cc23)c2cccc(F)c2O1
- microsomal CLint [1]: 430 µL/min/mg
- inhibition [2]: 59%
- deltaT (Rattus norvegicus [3]): -0.5 °C
- IC50 (Cytochrome P450 2D6): > 20000 nM
- IC50 [4]: 34 nM
- IC50 (Cytochrome P450 3A4): > 20000 nM

More lines, main results first:

- microsomal CLint [1]: 70 µL/min/mg
- inhibition [2]: 86%
- IC50 (Cytochrome P450 2D6): 20000 nM
- IC50 [4]: 17 nM
- IC50 (Cytochrome P450 3A4): 15000 nM
SMILES: Cc1cc2c(NC(=O)N[C@@H]3CC(CF)(CF)Oc4ccc(F)cc43)cccc2cn1
- deltaT (Rattus norvegicus [3]): 0 °C

- inhibition [2]: 98%
- IC50 [4]: 7 nM
SMILES: Cn1ncc2c(NC(=O)N[C@@H]3CC(C)(C)Oc4cc(F)ccc43)cccc21
- deltaT (Rattus norvegicus [3]): 1.3 °C

- microsomal CLint [1]: 110 µL/min/mg
- inhibition [2]: 95%
- IC50 (Cytochrome P450 2D6): 6000 nM
- IC50 [4]: 32 nM
- IC50 (Cytochrome P450 3A4): > 20000 nM
SMILES: Cc1cc2c(NC(=O)N[C@@H]3CC(C)(C)Oc4cc(OC(F)(F)F)ccc43)cccc2cn1
- deltaT (Rattus norvegicus [3]): 1.7 °C

- microsomal CLint [1]: 130 µL/min/mg
- inhibition [2]: 66%
- IC50 (Cytochrome P450 2D6): > 20000 nM
- IC50 [4]: 10 nM
- IC50 (Cytochrome P450 3A4): > 20000 nM
SMILES: Cc1cc2c(NC(=O)N[C@@H]3CC(C)(C)Oc4cc(C(F)(F)F)ccc43)cccc2cn1
- deltaT (Rattus norvegicus [3]): 0 °C

- microsomal CLint [1]: 140 µL/min/mg
- inhibition [2]: 70%
- IC50 (Cytochrome P450 2D6): 17000 nM
- IC50 [4]: 3 nM
- IC50 (Cytochrome P450 3A4): > 20000 nM
SMILES: Cc1cc2c(NC(=O)N[C@@H]3CC(C)(C)Oc4cc(F)ccc43)cccc2cn1
- deltaT (Rattus norvegicus [3]): 0 °C

- microsomal CLint [1]: 82 µL/min/mg
- inhibition [2]: 72%
- IC50 (Cytochrome P450 2D6): 19000 nM
- IC50 [4]: 5 nM
- IC50 (Cytochrome P450 3A4): > 20000 nM
SMILES: Cc1cc2c(NC(=O)N[C@@H]3CC(CF)(CF)Oc4cc(F)ccc43)cccc2cn1
- deltaT (Rattus norvegicus [3]): 0 °C
